“And” between values parts separate entries of the source, which are not always exact repeats. Identical values can stand only once.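 Grown in 96-well plates, cells were treated for 48 hours with each compound at five concentrations. Insufficient inhibition: endpoint recorded as highest concentration tested. At the GI50, growth is halved. TGI: concentration producing complete growth inhibition.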
Legend:
Experiment in all cases: inhibition of tumour cell growth, NCI panel, 48 h
786-0 renal = test system: 786-0 renal
A498 renal = test system: A498 renal
COLO 205 colon = test system: COLO 205 colon
HCC-2998 colon = test system: HCC-2998 colon
IGROV1 ovarian = test system: IGROV1 ovarian
OVCAR-8 ovarian = test system: OVCAR-8 ovarian
SK-MEL-2 melanoma = test system: SK-MEL-2 melanoma
SK-MEL-5 melanoma = test system: SK-MEL-5 melanoma
U251 CNS = test system: U251 CNS
K-562 leukemia = test system: K-562 leukemia

Cc1cc(F)c(C(=O)Nc2cccc(-c3nncn3C(C)C)n2)cc1-n1cnc(C2CC2)c1
GI50 (786-0 renal): 17.1 µM | TGI (786-0 renal): > 100 µM | GI50 (A498 renal): 14.2 µM | TGI (A498 renal): 62.6 µM | GI50 (COLO 205 colon): 4.2 µM | TGI (COLO 205 colon): 21.3 µM | GI50 (HCC-2998 colon): 14.3 µM | TGI (HCC-2998 colon): > 100 µM | GI50 (IGROV1 ovarian): 6.89 µM | TGI (IGROV1 ovarian): 61.7 µM | GI50 (OVCAR-8 ovarian): 18.3 µM | TGI (OVCAR-8 ovarian): 68 µM | GI50 (SK-MEL-2 melanoma): 23.9 µM | TGI (SK-MEL-2 melanoma): 58.1 µM | GI50 (SK-MEL-5 melanoma): 11.3 µM | TGI (SK-MEL-5 melanoma): 23.6 µM | GI50 (U251 CNS): 17.1 µM | TGI (U251 CNS): > 100 µM

O=C(O)C1C2C=CC(O2)C1C(=O)NCc1cccnc1 (stereo not drawn)
TGI (786-0 renal): > 100 µM | TGI (A498 renal): > 100 µM | TGI (COLO 205 colon): > 100 µM | TGI (IGROV1 ovarian): > 100 µM | TGI (K-562 leukemia): > 100 µM | TGI (OVCAR-8 ovarian): > 100 µM | TGI (SK-MEL-2 melanoma): > 100 µM | TGI (SK-MEL-5 melanoma): > 100 µM | TGI (U251 CNS): > 100 µM

C/C(NNC(=O)c1ccccc1O)=C1\C=Nc2ccccc2S1
TGI (786-0 renal): 29.3 µM | TGI (A498 renal): > 100 µM | TGI (HCC-2998 colon): 7.45 µM | TGI (IGROV1 ovarian): > 100 µM | TGI (K-562 leukemia): > 100 µM | TGI (OVCAR-8 ovarian): > 100 µM | TGI (SK-MEL-2 melanoma): 6.79 µM | TGI (SK-MEL-5 melanoma): > 100 µM | TGI (U251 CNS): > 100 µM

C/C=C1/CN2CCC34C(=C(C(=O)OC)C1CC23)Nc1ccc(O)cc14 (stereo not drawn)
TGI (786-0 renal): > 100 µM | TGI (A498 renal): > 100 µM | TGI (COLO 205 colon): > 100 µM | TGI (HCC-2998 colon): > 100 µM | TGI (IGROV1 ovarian): > 100 µM | TGI (OVCAR-8 ovarian): > 100 µM | TGI (SK-MEL-2 melanoma): > 100 µM | TGI (SK-MEL-5 melanoma): > 100 µM | TGI (U251 CNS): > 100 µM

Cc1ccc2nc(NC(=O)C(=O)C(C(=O)c3ccc4ccccc4c3)C3OC(=O)c4ccccc43)sc2c1 (stereo not drawn)
TGI (786-0 renal): 18.5 µM | TGI (A498 renal): 21.3 µM | TGI (COLO 205 colon): 34.6 µM | TGI (HCC-2998 colon): 23.7 µM | TGI (IGROV1 ovarian): 44.3 µM | TGI (OVCAR-8 ovarian): 62.1 µM | TGI (SK-MEL-2 melanoma): 29.3 µM | TGI (SK-MEL-5 melanoma): 22.6 µM | TGI (U251 CNS): 15.5 µM

CC(=O)NNc1nc(C)c(C(=O)NNC(=O)C(=O)Nc2ccc(Cl)c([N+](=O)[O-])c2)s1
TGI (786-0 renal): > 100 µM | TGI (COLO 205 colon): > 100 µM | TGI (HCC-2998 colon): > 100 µM | TGI (IGROV1 ovarian): > 100 µM | TGI (K-562 leukemia): 74.4 µM | TGI (OVCAR-8 ovarian): > 100 µM | TGI (SK-MEL-2 melanoma): > 100 µM | TGI (SK-MEL-5 melanoma): > 100 µM | TGI (U251 CNS): > 100 µM

Cc1ccc2c(c1)[n+](=O)c(C(=O)c1cccs1)c(C(F)(F)F)n2[O-]
GI50 (786-0 renal): 4.85 µM and 1.05 µM | TGI (786-0 renal): 50 µM and 12.4 µM | GI50 (COLO 205 colon): 1.47 µM and 0.842 µM | TGI (COLO 205 colon): 7.68 µM and 10.9 µM | GI50 (HCC-2998 colon): 0.638 µM and 0.238 µM | TGI (HCC-2998 colon): 2.1 µM and 0.559 µM | TGI (IGROV1 ovarian): 0.332 µM | GI50 (K-562 leukemia): 1.01 µM and 0.466 µM | TGI (K-562 leukemia): 50 µM and 19.5 µM | GI50 (OVCAR-8 ovarian): 1.67 µM and 0.247 µM | TGI (SK-MEL-2 melanoma): 50 µM and 18.6 µM | GI50 (SK-MEL-5 melanoma): 0.648 µM and 0.177 µM | TGI (SK-MEL-5 melanoma): 1.57 µM and 0.423 µM | GI50 (U251 CNS): 1.6 µM and 0.906 µM | TGI (U251 CNS): 10.1 µM and 14.3 µM

CCCCCCCCSC(=O)NCCCC
TGI (786-0 renal): > 100 µM | TGI (A498 renal): > 100 µM | TGI (COLO 205 colon): > 100 µM | TGI (IGROV1 ovarian): > 100 µM | TGI (K-562 leukemia): > 100 µM | TGI (OVCAR-8 ovarian): > 100 µM | TGI (SK-MEL-2 melanoma): 45.6 µM | TGI (SK-MEL-5 melanoma): 46.6 µM | TGI (U251 CNS): > 100 µM

CCOC(=O)C1(CC(=O)O)CCCC1=O (stereo not drawn)
TGI (786-0 renal): > 100 µM | TGI (A498 renal): > 100 µM | TGI (COLO 205 colon): > 100 µM | TGI (IGROV1 ovarian): > 100 µM | TGI (K-562 leukemia): > 100 µM | TGI (OVCAR-8 ovarian): > 100 µM | TGI (SK-MEL-2 melanoma): > 100 µM | TGI (SK-MEL-5 melanoma): > 100 µM | TGI (U251 CNS): > 100 µM

CC12Nc3ccccc3C1=C(c1ccccc1)CC1C(=O)OC(=O)C12 (stereo not drawn)
TGI (786-0 renal): > 100 µM | TGI (COLO 205 colon): > 100 µM | TGI (HCC-2998 colon): > 100 µM | TGI (IGROV1 ovarian): > 100 µM | TGI (K-562 leukemia): > 100 µM | TGI (OVCAR-8 ovarian): > 100 µM | TGI (SK-MEL-2 melanoma): > 100 µM | TGI (SK-MEL-5 melanoma): > 100 µM | TGI (U251 CNS): > 100 µM

OCC#CCOCC#Cc1ccccc1C#CCOCC#CCO
GI50 (786-0 renal): 34 µM | TGI (786-0 renal): > 100 µM | GI50 (A498 renal): 58.7 µM | TGI (A498 renal): > 100 µM | GI50 (HCC-2998 colon): 29 µM | TGI (HCC-2998 colon): 75.3 µM | GI50 (IGROV1 ovarian): > 100 µM | TGI (IGROV1 ovarian): > 100 µM | GI50 (K-562 leukemia): 27 µM | TGI (K-562 leukemia): 90 µM | GI50 (OVCAR-8 ovarian): 43.8 µM | TGI (OVCAR-8 ovarian): > 100 µM | GI50 (SK-MEL-2 melanoma): > 100 µM | TGI (SK-MEL-2 melanoma): > 100 µM | GI50 (SK-MEL-5 melanoma): 39.8 µM | TGI (SK-MEL-5 melanoma): > 100 µM

O=C1/C(=C/c2cccnc2)SC(=S)N1Cc1ccco1
TGI (786-0 renal): > 40.8 µM | TGI (A498 renal): 70.6 µM | TGI (COLO 205 colon): > 42.2 µM | TGI (IGROV1 ovarian): > 42.3 µM | TGI (K-562 leukemia): > 48 µM | TGI (OVCAR-8 ovarian): > 48.5 µM | TGI (SK-MEL-2 melanoma): > 27.2 µM | TGI (SK-MEL-5 melanoma): > 51 µM | TGI (U251 CNS): 30.6 µM

O=C(NC1CCN(Cc2ccccc2)CC1)c1cc(-c2cccnc2)nc2ccc(Cl)cc12
GI50 (786-0 renal): 4.63 µM | TGI (786-0 renal): 17.7 µM | TGI (A498 renal): 5.49 µM | GI50 (COLO 205 colon): 5.28 µM | TGI (COLO 205 colon): > 100 µM | GI50 (HCC-2998 colon): 5.51 µM | TGI (HCC-2998 colon): > 100 µM | GI50 (IGROV1 ovarian): 16.1 µM | TGI (IGROV1 ovarian): 81.8 µM | GI50 (K-562 leukemia): 3.43 µM | TGI (K-562 leukemia): 76.8 µM | GI50 (OVCAR-8 ovarian): 10.4 µM | TGI (OVCAR-8 ovarian): 35.4 µM | GI50 (SK-MEL-5 melanoma): 3.91 µM | TGI (SK-MEL-5 melanoma): > 100 µM | GI50 (U251 CNS): 6.94 µM | TGI (U251 CNS): 22.5 µM

Oc1ccc2ccccc2c1CCc1c(O)ccc2ccccc12
TGI (786-0 renal): 34.9 µM | TGI (A498 renal): 38.2 µM | TGI (COLO 205 colon): 29.1 µM | TGI (HCC-2998 colon): 21.8 µM | TGI (K-562 leukemia): 24.9 µM | TGI (OVCAR-8 ovarian): 27.6 µM | TGI (SK-MEL-5 melanoma): 25.7 µM | TGI (U251 CNS): 26 µM

O=C1C=CC2(CCCCCCC2=O)CC1 (stereo not drawn)
TGI (786-0 renal): > 100 µM | TGI (A498 renal): > 100 µM | TGI (COLO 205 colon): > 100 µM | TGI (HCC-2998 colon): > 100 µM | TGI (IGROV1 ovarian): > 100 µM | TGI (OVCAR-8 ovarian): > 100 µM | TGI (SK-MEL-5 melanoma): > 100 µM | TGI (U251 CNS): > 100 µM

Source: PubChem BioAssay (NCI)
